# Laboratory results as given in US20230144436A1, “MUSCLE TARGETING COMPLEXES AND USES THEREOF FOR TREATING MYOTONIC DYSTROPHY” (Dyne Therapeutics, Inc., priority 2020, published 2023).
# What was measured:
# [1] = system: DMPK; test: Dose-responsive DMPK reduction in DM1 C15 myotubes (EC-50); format: cell-based; conditions: DM1 C15 differentiated myotubes, 72 hours; for EC50: transfection with Lipofectamine MessengerMax, 0.046-100 nM; for Percent DMPK reduction at 100 nM: transfection
# Description: Eighteen oligonucleotides from Example 7 were selected to be evaluated for their ability to reduce DMPK expression in a dose-responsive manner. DM1 C15 myoblasts were prepared as in Example 7 to yield differentiated myotubes in 96-well microplates. After seven days of differentiation, cells were transfected with individual oligonucleotides using Lipofectamine MessengerMax. Each oligonucleotide was tested in triplicate at concentrations of 0.046 nM, 0.137 nM, 0.412 nM, 1.235 nM, 3.704 nM, 11.11 nM, 33.33 nM, and 100 nM by 3-fold serial dilutions using 0.3 μL of Lipofectamine MessengerMax per well.
# Following addition of oligonucleotide, cells were incubated for 72 hours prior to harvesting for total RNA. cDNA was synthesized from the total RNA extracts and qPCR was performed to determine expression levels of DMPK using a commercially available Taqman probeset in technical quadruplicate. All qPCR data were analyzed using a traditional ΔΔCT method and were normalized to a plate-based negative control that comprised of cells treated with vehicle control (0.3 μL/well Lipofectamine MessengerMax without any oligonucleotide). Data for each oligonucleotide to was fit to sigmoidal curve in order to determine an effective concentration of each oligonucleotide that provided a half-maximal response (EC-50).
# [2] = system: DMPK; test: DMPK knockdown by transfected antisense oligonucleotides in DM1 C15 myotubes at 0.5 nM and 50 nM; format: cell-based; conditions: 72 hours, qPCR; for Percent DMPK Reduction: relative to vehicle control; for Normalized DMPK Remaining: relative to vehicle control = 1.00
# In short: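 Seven-day-differentiated DM1 C15 myotubes transfected (Lipofectamine MessengerMax) with each oligonucleotide at 0.5 nM or 50 nM final, biological triplicates. After 72 h, DMPK mRNA quantified by qPCR, expressed relative to vehicle-only transfection set to 1.00.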
# [3] = system: C2C12 murine myotubes; conditions: in vitro, phage display; cited from earlier work
# [4] = system: mouse muscle tissue; conditions: cited from earlier work
# [5] = system: DMPK; test: Dose response of antisense oligonucleotides in DMPK knockdown in human DM1 myotubes; format: cell-based
# Source text: FIGS. 18A-18C depict non-limiting schematics showing the dose response of selected antisense oligonucleotides in DMPK knockdown in human DM1 myotubes. ControlDMPK-ASO was used as control. […] Statistical analysis: One-way ANOVA with Tukey's HSD post-hoc test vs. control DMPK-ASO treatment; *p<0.05, **p<0.01, ***p<0.001, ****p<0.0001.
# (§1) The antisense oligonucleotides listed in Table 11 were further assessed to identify oligos that are safe in vivo (e.g., as indicated by low immunogenicity as measured by cytokine induction), and further based on manufacturability and secondary structure considerations. Three antisense oligonucleotides from Table 11, […] (SEQ ID NO: 310, DMPK-ASO-1), […] (SEQ ID NO: 320, DMPK-ASO-2), and […] (SEQ ID NO: 278, DMPK-ASO-3) were selected. These oligonucleotides were then further evaluated for their ability to reduce DMPK expression in DM1 myotubes and NHP myotubes in a dose-responsive manner. The tool compound (control DMPK-ASO) was used as control.
# [6] = system: DMPK; test: Dose response of antisense oligonucleotides in DMPK knockdown in NHP myotubes; format: cell-based, non-human primate
# Source text: FIGS. 19A-19B depict non-limiting schematics showing the dose response of selected antisense oligonucleotides in DMPK knockdown in non-human primate (NHP) DM1 myotubes. Control DMPK-ASO was used as control.
# as §1
# [7] = system: DMPK; test: DMPK expression in RD cells treated with free or transfected DMPK-targeting oligonucleotides; format: cell-based; conditions: free (gymnotic) or transfected, 3 days
# Description: The duration of treatment was 3 days. DMPK-targeting oligonucleotides were delivered to the cells as free oligonucleotides (gymnotic uptake, “free”) or with transfection reagent (“trans”).
# DMPK-targeting oligonucleotides (e.g., ASO) were tested in rhabdomyosarcoma (RD) cells for knockdown of DMPK transcript expression. RD cells were cultured in a growth medium of DMEM with glutamine, supplemented with 10% FBS and penicillin/streptomycin until nearly confluent. Cells were then seeded into a 96 well plate at 20K cells per well and were allowed to recover for 24 hours. Cells were then treated with free DMPK-targeting oligonucleotides or by transfection of the oligonucleotides using 0.3 μL per well of Lipofectamine MessengerMAX transfection reagent. After 3 days, total RNA was collected from cells, cDNA was synthesized and DPMK expression was measured by qPCR.
substance,measurement,setting,value
313 (GGACGAUCUUGCCAUAGGUC; chemistry not given here) [compound 313],EC50,[1],3.59 nM
same,Percent DMPK reduction at 100 nM,[1],92.18%
same,Percent DMPK Reduction,[2]; 0.5 nM oligonucleotide,29.82%
same,Normalized DMPK Remaining,[2]; 0.5 nM oligonucleotide,0.70
same,Percent DMPK Reduction,[2]; 50 nM oligonucleotide,48.97%
same,Normalized DMPK Remaining,[2]; 50 nM oligonucleotide,0.51
316 (AGCAGGAUGUUGUCGGGUUU; chemistry not given here) [compound 316],EC50,[1],0.227 nM
same,Percent DMPK reduction at 100 nM,[1],85.81%
same,Percent DMPK Reduction,[2]; 0.5 nM oligonucleotide,41.05%
same,Normalized DMPK Remaining,[2]; 0.5 nM oligonucleotide,0.59
same,Percent DMPK Reduction,[2]; 50 nM oligonucleotide,74.02%
same,Normalized DMPK Remaining,[2]; 50 nM oligonucleotide,0.26
320 (CCCAGCGCCCACCAGUCACA; chemistry not given here) [compound 320],EC50,[1],5.45 nM
same,Percent DMPK reduction at 100 nM,[1],63.69%
same,Percent DMPK Reduction,[2]; 0.5 nM oligonucleotide,37.93%
same,Normalized DMPK Remaining,[2]; 0.5 nM oligonucleotide,0.62
same,Percent DMPK Reduction,[2]; 50 nM oligonucleotide,67.82%
same,Normalized DMPK Remaining,[2]; 50 nM oligonucleotide,0.32
346 (GACAGAACAACGGCGAACAG; chemistry not given here) [compound 346],EC50,[1],0.08 nM
same,Percent DMPK reduction at 100 nM,[1],94.32%
same,Percent DMPK Reduction,[2]; 0.5 nM oligonucleotide,21.41%
same,Normalized DMPK Remaining,[2]; 0.5 nM oligonucleotide,0.79
same,Percent DMPK Reduction,[2]; 50 nM oligonucleotide,70.49%
same,Normalized DMPK Remaining,[2]; 50 nM oligonucleotide,0.30
362 (GCUGUCCCGGAGACCAUCCC; chemistry not given here) [compound 362],EC50,[1],3.27 nM
same,Percent DMPK reduction at 100 nM,[1],93.07%
same,Percent DMPK Reduction,[2]; 0.5 nM oligonucleotide,22.57%
same,Normalized DMPK Remaining,[2]; 0.5 nM oligonucleotide,0.77
same,Percent DMPK Reduction,[2]; 50 nM oligonucleotide,66.27%
same,Normalized DMPK Remaining,[2]; 50 nM oligonucleotide,0.34
ASSLNIA [muscle-specific heptapeptide identified by phage display],binding to C2C12 cells,[3],bound to C2C12 murine myotubes in vitro
same,specificity for binding to heart and skeletal muscle tissue,"[4]; after intravenous injection in mice, reduced binding to liver, kidney, and brain",improved specificity for binding to heart and skeletal muscle tissue
same,binding to mouse muscle tissue,[4]; in vivo,bound to mouse muscle tissue in vivo
"CCAUCUCGGCCGGAAUCCGC (chemistry not given here) [SEQ ID NO: 278, DMPK-targeting antisense oligonucleotide]",DMPK knockdown in DM1 myotubes,[5],dose-dependently reducing DMPK
same,DMPK knockdown in NHP myotubes,[6],dose-dependently reducing DMPK
same,DMPK expression level relative to PBS-treated cells,[7],reduced
"CCCAGCGCCCACCAGUCACA (chemistry not given here) [SEQ ID NO: 320, DMPK-targeting antisense oligonucleotide]",DMPK knockdown in DM1 myotubes,[5],dose-dependently reducing DMPK
same,DMPK knockdown in NHP myotubes,[6],dose-dependently reducing DMPK
same,DMPK expression level relative to PBS-treated cells,[7],reduced
"GCGUAGAAGGGCGUCUGCCC (chemistry not given here) [SEQ ID NO: 310, DMPK-targeting antisense oligonucleotide]",DMPK knockdown in DM1 myotubes,[5],dose-dependently reducing DMPK
same,DMPK knockdown in NHP myotubes,[6],dose-dependently reducing DMPK
same,DMPK expression level relative to PBS-treated cells,[7],reduced
SKTFNTHPQSTP [12 amino acid muscle-targeting peptide identified by phage display],binding to C2C12 cells,[3],improved binding to C2C12 cells relative to the ASSLNIA
